Data from paper PMC10743905, “Design, Synthesis, and In Vitro and In Vivo Bioactivity Studies of Hydrazide–Hydrazones of 2,4-Dihydroxybenzoic Acid” (International Journal of Molecular Sciences, 2023).
Where two headings read alike, the source gives them in different places.

How the values were obtained:
Gram-negative bacteria = test: Broth microdilution, summary over the Gram-negative panel; format: cell-based
Description: (§1) In vitro antimicrobial activity assays - Methodology
(§2) The examined compounds 1 - 24 were screened in vitro for antibacterial and antifungal activities using the broth microdilution method according to procedure reported earlier by our research group and European Committee on Antimicrobial Susceptibility Testing (EUCAST) and Clinical and Laboratory Standards Institute (CLSI) guidelines against a panel of reference and clinical or saprophytic strains of microorganisms, in-cluding Gram-positive bacteria, Staphylococcus aureus ATCC 43300 (Methicillin Resistant S. aureus – MRSA), Staphylococcus aureus ATCC 29213 (Methicillin Susceptible S. aureus – MSSA), Staphylococcus epidermidis ATCC 12228, Enterococcus faecalis ATCC 29212, Micro-coccus luteus ATCC 10240, Bacillus subtilis ATCC 6633 and Bacillus cereus ATCC 10876), Gram-negative bacteria (Bordetella bronchiseptica ATCC 4617, Escherichia coli ATCC 25922, Klebsiella pneumoniae ATCC 13883, Proteus mirabilis ATCC 12453, Salmonella typhimurium ATCC 14028 and Pseudomonas aeruginosa ATCC 9027) and fungi belonging to yeasts (Can-dida albicans ATCC 10231, Candida albicans ATCC 2091, Candida parapsilosis ATCC 22019, Candida glabrata ATCC 90030 and Candida krusei ATCC 14243). The microorganisms be-longing to ATCC came from American Type Culture Collection, routinely used for the evaluation of antimicrobials. All the used microbial cultures were first subcultured on nu-trient agar or Sabouraud agar at 35°C for 18-24 h or 30°C for 24-48 h for bacteria and fungi, […]
The surface of Mueller-Hinton agar (for bacteria) and RPMI 1640 with MOPS (for fungi) were inoculated with the suspensions of bacterial or fungal species. Microbial suspensions were prepared in sterile saline with an optical density of McFarland standard scale 0.5.
Samples containing examined compounds were dissolved in dimethyl sulfoxide (DMSO).
Furthermore, bacterial and fungal suspensions were put onto Petri dishes with solid me-dia containing 2 mg/mL of the tested compounds followed incubation at 37°C for 24h and 30°C for 48h for bacteria and fungi, respectively. The inhibition of microbial growth was judged by comparison with a control culture prepared without any sample tested. Ciprof-loxacin, vancomycin, nitrofurantoin, cefuroxime, ampicillin or nystatin (Sigma) were used as a reference antibacterial or antifungal compounds, respectively.
(§3) Subsequently, the MIC (Minimal Inhibitory Concentration) of the compounds was ex-amined by the microdilution broth method, using their two-fold dilutions in Mueller- […]
(§4) Hinton broth or (for bacteria) and RPMI 1640 broth with MOPS (for fungi) prepared in 96-well polystyrene plates. Final concentrations of the compounds ranged from 1000 to 0.488 µg/ml. Microbial suspensions were prepared in 0.85% NaCl with an optical density of 0.5 McFarland standard. Next each bacterial or fungal suspension was added per each well containing broth and various concentrations of the examined compounds. After incuba-

[1] = test system: Bordetella bronchiseptica ATCC 4617; test: Broth microdilution MIC/MBC; format: cell-based; details: for MBC / MIC: ATCC4617
Outline: (§5)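 Broth microdilution per EUCAST and CLSI guidelines: 0.5 McFarland inocula in 0.85% NaCl added to two-fold compound dilutions (1000–0.488 µg/ml final). Media were Mueller-Hinton broth for bacteria and RPMI 1640 with MOPS for yeasts.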

[2] = test system: Klebsiella pneumoniae ATCC 13883; test: Broth microdilution MIC/MBC; format: cell-based; details: for MBC / MIC: ATCC13883
Outline: as §5

[3] = test system: Bacillus cereus ATCC 10876; test: Broth microdilution MIC/MBC; format: cell-based; details: for MBC: ATCC10876; for MIC: ATCC10876, read-out: MIC
Outline: as §5

[4] = test system: Escherichia coli ATCC 25922; test: Broth microdilution MIC/MBC; format: cell-based; details: for MBC / MIC: ATCC25922
Outline: as §5

[5] = test system: Enterococcus faecalis ATCC 29212; test: Broth microdilution MIC/MBC; format: cell-based; details: for MBC: ATCC29212, read-out: MBC; for MIC: ATCC29212, read-out: MIC
Outline: as §5

[6] = test system: reference Gram-positive bacteria; test: Broth microdilution, summary over the Gram-positive panel; format: cell-based; details: read-out: MIC
Description: as §1
as §2, with “antimicrobials.” for “antimicrobials. All the used microbial cultures were first subcultured on nu-trient agar or Sabouraud agar at 35°C for 18-24 h or 30°C for 24-48 h for bacteria and fungi,”
Samples containing examined compounds were dissolved in dimethyl sulfoxide (DMSO). […]
as §3, §4

[7] = test system: Bacillus subtilis ATCC 6633; test: Broth microdilution MIC/MBC; format: cell-based; details: for MBC: ATCC6633
Outline: as §5

[8] = test system: Candida albicans ATCC 2091; test: Broth microdilution MIC/MFC; format: cell-based; details: for MIC: ATCC2091, read-out: MIC
Outline: as §5

[9] = test system: Candida glabrata ATCC 90030; test: Broth microdilution MIC/MFC; format: cell-based; details: for MIC: ATCC90030, read-out: MIC
Outline: as §5

[10] = test system: Candida parapsilosis ATCC 22019; test: Broth microdilution MIC/MFC; format: cell-based; details: for MIC: ATCC22019, read-out: MIC
Outline: as §5

[11] = test system: Candida krusei ATCC 14243; test: Broth microdilution MIC/MFC; format: cell-based; details: Pichia kudriavzevii, ATCC14243, read-out: MIC
Outline: as §5

[12] = test system: Candida albicans ATCC 10231; test: Broth microdilution MIC/MFC; format: cell-based; details: for MIC: ATCC10231, read-out: MIC
Outline: as §5

[13] = test system: Staphylococcus aureus ATCC 43300; test: Broth microdilution MIC/MBC; format: cell-based; details: Staphylococcus aureus ATCC 43300 (MRSA)
Outline: as §5

[14] = test system: Micrococcus luteus ATCC 10240; test: Broth microdilution MIC/MBC; format: cell-based; details: for MBC: ATCC10240
Outline: as §5

[15] = test system: Proteus mirabilis ATCC 12453; test: Broth microdilution MIC/MBC; format: cell-based; details: for MBC / MIC: ATCC12453
Outline: as §5

[16] = test system: Salmonella typhimurium ATCC 14028; test: Broth microdilution MIC/MBC; format: cell-based; details: for MBC / MIC: Salmonella enterica
Outline: as §5

[17] = test system: Pseudomonas aeruginosa ATCC 9027; test: Broth microdilution MIC/MBC; format: cell-based; details: ATCC9027
Outline: as §5

[18] = test system: Staphylococcus aureus ATCC 29213; test: Broth microdilution MIC/MBC; format: cell-based; details: for MBC / MIC: ATCC29213
Outline: as §5

[19] = test system: Staphylococcus epidermidis ATCC 12228; test: Broth microdilution MIC/MBC; format: cell-based; details: for MBC: ATCC12228; for MIC: ATCC12228, read-out: MIC
Outline: as §5

Enterococcus faecalis = test system: Enterococcus faecalis; parameters: method as in PMID 23510516; details: cited from earlier work
MDA-MB-231 cell line = test system: MDA-MB-231 cell line; parameters: method as in PMID 34578985; details: MDA-MB-231 breast cancer cell line; cited from earlier work
Escherichia coli = test system: Escherichia coli; parameters: method as in PMID 23510516; details: cited from earlier work
Pasteurella multocida = test system: Pasteurella multocida; parameters: method as in PMID 23510516; details: cited from earlier work
MCF-7 cell line = test system: MCF-7 cell line; parameters: method as in PMID 34578985; details: MCF-7 breast cancer cell line; cited from earlier work
[20] = test system: Staphylococcus aureus MRSA strain; parameters: method as in PMID 23510516; details: cited from earlier work
Neisseria gonorrhoeae = test system: Neisseria gonorrhoeae; parameters: method as in PMID 23510516; details: cited from earlier work
HepG2 cells = test system: HepG2 cells; parameters: method as in doi:10.1016/j.cclet.2016.10.020; details: standard; cited from earlier work

Cc1cccc(/C=N/NC(=O)c2ccc(O)cc2O)c1 [Compound 2, 2,4-dihydroxy-N-[(3-methylphenyl)methylidene]benzohydrazide]
> 2: MFC/MIC [10]
31.2 µg/mL: MIC ([14]; ATCC10240, read-out: MIC)
> 1000 µg/mL: MBC (Gram-negative bacteria) | MBC [1] | MBC [2] | MBC [4] | MIC [8] | MFC ([10]; Lodderomyces parapsilosis, ATCC22019, read-out: MFC) | MIC [11] | MIC [12] | MBC [15] | MBC [16] | MIC [17]
500 µg/mL: MBC [5] | MIC [5] | MBC [7] | MFC ([9]; Nakaseomyces glabratus, ATCC90030, read-out: MFC) | MIC ([10]; Lodderomyces parapsilosis) | MBC [13] | MBC [19]
62.5 µg/mL: MIC [7] | MIC ([7]; ATCC6633, read-out: MIC)
1000 µg/mL: MIC [1] | MIC [2] | MIC [4] | MIC [15] | MIC [16]
31.25 µg/mL: MIC [14]
2: MBC/MIC [3] | MFC/MIC [9] | MBC/MIC [13] | MBC/MIC [19]
> 1: MBC/MIC [1] | MBC/MIC [2] | MBC/MIC [4] | MBC/MIC [15] | MBC/MIC [16]
125 µg/mL: MIC [3]
1: MBC/MIC [5] | MBC/MIC [18]
15.6 to 1000 µg/mL: MIC [6]
8: MBC/MIC [7] | MBC/MIC [14]
250 µg/mL: MBC [3] | MIC ([9]; Nakaseomyces glabratus) | MIC [13] | MBC [14] | MBC [18] | MIC [18] | MIC [19]
500 to 1000 µg/mL: MIC (Gram-negative bacteria)

O=C(O)c1ccc(O)cc1O [2,4-dihydroxybenzoic acid]
4770 µM: IC50 (MDA-MB-231 cell line)
1000 µg/mL: MIC (Enterococcus faecalis) | MIC (Escherichia coli) | MIC (Pasteurella multocida) | MIC (Neisseria gonorrhoeae)
nontoxic: cytotoxicity (MCF-7 cell line)
500 µg/mL: MIC [20]

COc1cccc2c1C(=O)c1c(O)c3c(c(O)c1C2=O)C[C@@](O)(C(=O)CO)C[C@@H]3O[C@H]1C[C@H](N)[C@H](O)[C@H](C)O1 [doxorubicin]
6 µM: IC50 (HepG2 cells)

O=C(N/N=C/c1cc(Br)c(O)c(Br)c1)c1ccc(O)cc1O [Compound 17, N-[(3,5-dibromo-4-hydroxyphenyl)methylidene]-2,4-dihydroxybenzohydrazide]
1000 µg/mL: MIC [1] | MIC [2] | MIC [4] | MIC [8] | MIC [12] | MIC [15] | MIC [16]
> 1000 µg/mL: MBC (Gram-negative bacteria) | MBC [1] | MBC [2] | MBC [3] | MBC [4] | MBC [5] | MBC [7] | MFC ([8]; ATCC2091, read-out: MFC) | MIC ([9]; Nakaseomyces glabratus) | MIC ([10]; Lodderomyces parapsilosis) | MIC [11] | MFC ([12]; ATCC10231, read-out: MFC) | MBC [13] | MBC [14] | MBC [15] | MBC [16] | MIC [17] | MBC [18] | MBC [19]
32: MBC/MIC [18]
260 °C: melting point
125 µg/mL: MIC ([7]; ATCC6633, read-out: MIC) | MIC ([14]; ATCC10240, read-out: MIC)
500 to 1000 µg/mL: MIC (Gram-negative bacteria)
> 16: MBC/MIC [13]
15.6 to 1000 µg/mL: MIC [6]
500 µg/mL: MIC [5]
> 4: MBC/MIC [3]
> 8: MBC/MIC [7] | MBC/MIC [14] | MBC/MIC [19]
62.5 µg/mL: MIC [13]
31.2 µg/mL: MIC [18]
250 µg/mL: MIC [3] | MIC [19]
> 1: MBC/MIC [1] | MBC/MIC [2] | MBC/MIC [4] | MBC/MIC [5] | MFC/MIC [8] | MFC/MIC [12] | MBC/MIC [15] | MBC/MIC [16]
